Reference: patent US12097200B2, “Combination of BI853520 with chemotherapeutic drugs” (INXMED (NANJING) CO., LTD., priority 2020, dated 2024)
“And” between values parts separate entries of the source, which are not always exact repeats. Identical values can stand only once. “Also recorded” adds a separate entry of the source.

What was measured:
NCI-H520 cells = details: NCI-H520 xenograft, day 22, combination of both
Experimental: Mice were approximately 6 weeks old. There were 5 mice in each group.
The cell concentration of the culture was maintained between 8×10^6 to 12×10^7 cells/tissue culture flask.
Cisplatin was dissolved in 0.9% saline.
Statistical evaluation was performed using the Student's t-test function in Microsoft Excel, utilizing a two-tailed distribution and a two-sample equal variance type.

KYSE-70 cells = test: Antitumor activity in mouse xenograft model of human esophageal cancer (KYSE-70); type: in vivo; details: KYSE-70 xenograft, combination of both
[1] = test system: GXA 3039 gastric cancer PDX model
Experimental: Mice were housed in individual ventilated cages ([sequence] Sealsafe™-IVC-System, [sequence], Hohenpeissenberg, Germany), and type II or III cages were selected according to the number of experimental animals. The cages were under the conditions: 14L:10D light-dark cycle, air exchange (AC) rate of 60-65 AC/hr in the cage, 25±1° C. and 40-70% humidity. […] Water and diet were changed twice a week, and all materials were autoclaved before use.
Tumor fragments were implanted subcutaneously into the flank of female pre-study mice. […] Animals that were not randomized were euthanized. The date of randomization was designated as day 0 of the test, and dosing began on day 1. […] If less than 70% of the original number of mice survived (i.e. less than 6 out of 8), the entire group was terminated. […] Tolerability was assessed using the group with the largest median body weight loss (BWL) among groups.
Inhibition of tumor growth was determined by calculating TGI.
Additional endpoints used to assess efficacy included: time to tumor volume doubling/quadrupling and tumor growth delay/time to tumor progression/tumor repopulation.
Time to tumor volume doubling/quadrupling: The time to tumor volume doubling/quadrupling (Td/Tq) for the test and control groups was defined as the time interval (in days) required for each group to reach 200%/400% of the median RTV. The relative volume of a single tumor on day X (RTVx [%]) was obtained by dividing the absolute volume of the tumor on day X (Tx) by the absolute volume of the tumor on day 0 (T0) and then multiplying it by 100, as follows:
Tumor growth delay/time to tumor progression/tumor repopulation: To assess the difference in time to tumor progression/tumor repopulation after tumor regression during the no-dose observation period (tumor growth delay, TGD), Kaplan-Meier survival analysis was used. A relative tumor volume of 400% was defined as the endpoint.
The control group for oral administration was 0.5% Natrosol. The control group for intravenous administration was 0.9% saline. Each dose was 10 ml/kg.
Data were used for statistical analysis at the end of the study. The one-tailed nonparametric Mann-Whitney-Wilcoxon U test was used with the significance level a set at 0.05. The p-values obtained from the U-test were adjusted using the Bonferroni-Holm correction.
To assess the statistical significance of differences in time to tumor progression/tumor growth delay (TGD) using 400% of RTV as the trial endpoint, the Kaplan-Meier survival mode statistic was used in conjunction with the log-rank Mantel-Cox test for pairwise comparisons.
Additionally, to assess tolerance to treatment, a two-tailed nonparametric Mann-Whitney-Wilcoxon U test was performed using body weights determined at the end of the dosing period (i.e., on the day TGI values were calculated).
By convention, p-values≤0.05 represented significant tumor inhibition or weight loss.

HS 746T cells = test: Antitumor activity in mouse xenograft model of human gastric cancer (HS 746T); type: in vivo; details: HS 746T xenograft, combination of both
From the text: (§1) For tumor volume, absolute values were used.
(§2) Appropriate statistical methods were used for evaluation.
HS 746T: Approximately 6 week old mice.

KYSE-270 cells = test: Antitumor activity in mouse xenograft model of human esophageal cancer (KYSE-270); type: in vivo; details: KYSE-270 xenograft
From the text: as §1, §2
Mice were approximately 8-10 weeks old.
KYSE-270 was a cell line for esophageal cancer (Public Health England, Cat. No. 94072021).

[2] = BI 853520 50 mg/kg qd, cisplatin 5 mg/kg IP q7d
[3] = BI 853520 50 mg/kg qd, docetaxel 10 mg/kg q7d
[4] = BI 853520 50 mg/kg qd, paclitaxel 10 mg/kg q7d, combination of both

## N.N.[Cl][Pt][Cl] [Cisplatin, reference compound]
NCI-H520 cells; BI 853520 50 mg/kg qd by gavage, cisplatin 5 mg/kg IP once a week
  Median tumor volume: 228 mm^3
NCI-H520 cells; [2]
  Median TGI: 74%
  Tumor regression (animals with regression/animals in group): 0/7

## CC(=O)O[C@@]12CO[C@@H]1C[C@H](O)[C@@]1(C)C(=O)[C@H](O)C3=C(C)[C@@H](OC(=O)[C@H](O)[C@@H](NC(=O)OC(C)(C)C)c4ccccc4)C[C@@](O)([C@@H](OC(=O)c4ccccc4)[C@H]21)C3(C)C [Docetaxel, reference compound]
KYSE-70 cells; day 42, BI 853520 50 mg/kg qd by gavage, docetaxel 10 mg/kg q7d i.v.
  Median tumor volume: 73 mm^3
KYSE-70 cells; [3]
  Antitumor effect (in words): had inhibitory effect
  Change in median body weight: 5.6%
  TGI: 100%
[1]; GXA 3039 PDX, time to 200% of median RTV, doses as Table 8
  Td (time to tumor volume doubling): 8.5 days
[1]; GXA 3039 PDX, time to 400% of median RTV, nr = not reached until end of test, doses as Table 8
  Tq (time to tumor volume quadrupling): 108.0 days
[1]; GXA 3039 gastric cancer PDX, day 36, BI 853520 50 mg/kg/d PO days 1-35, docetaxel 10 mg/kg IV days 1, 8, 15, 22, 29, combination of both
  TGI [%] (d): 113% and 113(36) %
[1]; female, BomTac:NMRI-Foxn1nu, mouse, in vivo
  Survival rate: 2/8
[1]; mouse, in vivo
  Median BWL maximum: 2.1%
  Median BWL maximum, day: 2 days
HS 746T cells; day 24 (withdrawal on day 28), BI 853520 50 mg/kg qd by gavage, docetaxel 10 mg/kg q7d i.v.
  Median tumor volume: 0 mm^3
HS 746T cells; [3]
  Antitumor effect (in words): had inhibitory effect
  Change in median body weight: 6.7%
  TGI: 108%

## CC(=O)O[C@H]1C(=O)[C@@]2(C)[C@H]([C@H](OC(=O)c3ccccc3)[C@]3(O)C[C@H](OC(=O)[C@H](O)[C@@H](NC(=O)c4ccccc4)c4ccccc4)C(C)=C1C3(C)C)[C@]1(OC(C)=O)CO[C@@H]1C[C@@H]2O [Paclitaxel]
KYSE-270 cells; day 13, BI 853520 50 mg/kg qd by gavage, paclitaxel 10 mg/kg q7d i.v., combination of both
  Median tumor volume: 1033 mm^3
KYSE-270 cells; day 13, BI 853520 50 mg/kg qd, paclitaxel 10 mg/kg q7d, combination of both
  TGI: 2%
KYSE-270 cells; [4]
  Antitumor effect (in words): no effect on tumor growth; also recorded: had no effect
  Change in median body weight: −9.7%
  Tumor regression (animals with regression/animals in group): no tumor regression and 0/7
KYSE-270 cells; paclitaxel 10 mg/kg q7d, value is a decrease
  Animal body weight decreased by: 9.7%
